In patent US10919869B2, “Thiazole derivative and applications” (EAST CHINA UNIVERSITY OF SCIENCE AND TECHNOLOGY, priority 2016, dated 2021):

What follows are compounds tested against hsDHODH (Homo sapiens (Human), UniProt Q02127) (assay: Activity test at enzyme level: DHODH inhibition, DCIP absorbance at 600 nm). Conditions: pharmaceutically acceptable esters (prodrugs of A and B series), hsDHODH enzyme test; read-out: IC50.
Format: biochemical
Experimental: Culture and Purification of hsDHODH Protein
The correctly sequenced recombinant plasmid pET-19b-DHODH was transformed into competent E. coli BL21 (DE3), and cultured on LB plate containing ampicillin. Colonies were randomly selected, inoculated into LB medium containing […], and incubate overnight at 37° C., 230 rpm. The cells were inoculated at a ratio of 1:200 in 500 mL of LB medium containing […] and expanded at 37° C., 230 rpm. When the OD value of the cells reached 0.8-1, IPTG was added into the medium to a final concentration of IPDG of 0.5 mM, and expression was induced overnight at 25° C. The induced cells were collected by centrifugation at […], 4° C., washed with deionized water, and centrifuged again to collect the bacterial pellet, which was stored at −80° C.
Purification of protein: cells were re-suspended in lysis liquid containing 50 mM HEPES (pH 8.0), 0.15 M NaCl, 10 mM imidazole, 10% glycerol, 0.1% Triton X-100, and a small amount of soy protease inhibitor added. After re-suspended and mixed homogeneously, cells were ultrasonically disrupted. The disruption solution was centrifuged for 30 min, and the supernatant and precipitate were taken for protein electrophoresis to determine the form of protein. The supernatant was loaded onto a Ni-NTA column, and the pass-through liquid was collected, and then the resin was washed for 3-4 times with a lysis liquid containing 20 mM imidazole, and finally eluted with a lysis liquid containing 300 mM imidazole. After elution, protein solution was collected. 10 μL of the above protein sample was taken for SDS-PAGE electrophoresis to determine the content of target protein. Finally, the eluted protein solution is dialyzed in the dialysis liquid to remove imidazole, thereby obtaining a pure protein.
Method for Testing Activities of Compounds at Enzyme Level
Principles of activity test at enzyme level: firstly, dihydroorotate (DHO) is oxidatively dehydrogenated by DHODH to form orotic acid (Orotate, OA), accompanied by reduction of Flavin mononucleotide (FMN) into reduced flavin mononucleotide (FMNH2) by accepting 2H+ and 2e−, then coenzyme Q (CoQ) as hydrogen acceptor accepting electron and proton from FMNH2 is reduced into reduced coenzyme Q (CoQH2), reduced coenzyme Q transfers electrons to a chromogenic substrate, […] (DCIP), and finally DCIP was reduced. […] The degree to which the substrate DHO is oxidized can be judged based on the degree of decrease in absorbance. The degree of oxidation of the substrate DHO per unit time is the initial rate of the enzymatic reaction. Upon addition of a inhibitor, the initial rate of the enzymatic reaction is reduced.
Substrate DHO was added to start the reaction with a DHO final concentration of 500 μM. The absorbance was read at 600 nm using a BioTek microplate reader and read every 30 s for 6 min. […] For calculating IC50 of a compound, Origin 8.0 was used to test the inhibition rate at least 8 concentrations.

Chain of hsDHODH (Q02127 whole entry): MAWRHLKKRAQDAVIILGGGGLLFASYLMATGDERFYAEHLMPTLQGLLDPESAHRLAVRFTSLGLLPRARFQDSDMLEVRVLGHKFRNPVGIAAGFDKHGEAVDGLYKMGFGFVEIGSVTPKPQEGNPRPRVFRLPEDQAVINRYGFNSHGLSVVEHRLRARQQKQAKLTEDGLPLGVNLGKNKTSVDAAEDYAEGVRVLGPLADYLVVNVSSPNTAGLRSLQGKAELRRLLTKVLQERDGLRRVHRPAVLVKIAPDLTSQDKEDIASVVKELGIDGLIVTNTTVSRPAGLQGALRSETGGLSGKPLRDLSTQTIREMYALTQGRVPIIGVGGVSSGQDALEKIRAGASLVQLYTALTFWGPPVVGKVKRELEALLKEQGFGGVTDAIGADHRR

| SMILES | IC50 [µM] |
| --- | --- |
| CN(/N=C/c1ccccc1C(=O)OC1CCCCC1)c1nc(-c2ccccc2Cl)cs1 [Compound B8, (E)-4-(2-chlorophenyl)-2-[1-methyl-2-(2-cyclohexyloxyformylbenzylidene)hydrazino]thiazole] | > 50 |
| CC(C)OC(=O)OCOC(=O)c1ccccc1/C=N/Nc1nc(-c2ccccc2Cl)cs1 [Compound A10, ((isopropoxycarbonyl)oxy)methyl (E)-2-((2-(4-(2-chlorophenyl)thiazol-2-yl)hydrazono)methyl)benzoate] | > 50 |
| CN(C)C(=O)c1ccccc1/C=N/Nc1nc(-c2ccccc2Cl)cs1 [Compound A13, (E)-4-(2-chlorophenyl)-2-((N,N-Dimethyl)formylbenzylidenehydrazino)thiazole] | > 50 |
| CCC(C)OC(=O)c1ccccc1/C=N/N(C)c1nc(-c2ccccc2Cl)cs1 (centres unmarked) [Compound B5, (E)-4-(2-chlorophenyl)-2-[1-methyl-2-(2-(2-butoxy)formylbenzylidene)hydrazino]thiazole] | > 50 |
| O=C(OCc1ccccc1)c1ccccc1/C=N/Nc1nc(-c2ccccc2Cl)cs1 [Compound A11, (E)-4-(2-chlorophenyl)-2-(2-benzyloxyformylbenzylidenehydrazino)thiazole] | > 50 |
| CCCCCCOC(=O)c1ccccc1/C=N/N(C)c1nc(-c2ccccc2Cl)cs1 [Compound B7, (E)-4-(2-chlorophenyl)-2-[1-methyl-2-(2-hexyloxyformylbenzylidene)hydrazino]thiazole] | > 50 |
| CCCCCCOC(=O)c1ccccc1/C=N/Nc1nc(-c2ccccc2Cl)cs1 [Compound A7, (E)-4-(2-chlorophenyl)-2-(2-hexyloxyformylbenzylidenehydrazino)thiazole] | > 50 |
| CCCOC(=O)c1ccccc1/C=N/Nc1nc(-c2ccccc2Cl)cs1 [Compound A2, (E)-4-(2-chlorophenyl)-2-(2-propoxyformylbenzylidenehydrazino)thiazole] | 1.4 ± 0.0661 |
| CCCOC(=O)c1ccccc1/C=N/N(C)c1nc(-c2ccccc2Cl)cs1 [Compound B2, (E)-4-(2-chlorophenyl)-2-[1-methyl-2-(2-propoxyformylbenzylidene)hydrazino]thiazole] | 1.96 ± 0.111 |
| CCOC(=O)c1ccccc1/C=N/N(C)c1nc(-c2ccccc2Cl)cs1 [Compound B1, (E)-4-(2-chlorophenyl)-2-[1-methyl-2-(2-ethoxyformylbenzylidene)hydrazino]thiazole] | 2.79 ± 0.0465 |
| O=C(OC1CCCCC1)c1ccccc1/C=N/Nc1nc(-c2ccccc2Cl)cs1 [Compound A8, (E)-4-(2-chlorophenyl)-2-(2-cyclohexyloxyformylbenzylidenehydrazino)thiazole] | > 50 |
| CCC(C)OC(=O)c1ccccc1/C=N/Nc1nc(-c2ccccc2Cl)cs1 (centres unmarked) [Compound A5, (E)-4-(2-chlorophenyl)-2-(2-(2-butoxy)formylbenzylidenehydrazino)thiazole] | 4.651 ± 0.0264 |
| CC(C)(C)C(=O)OCOC(=O)c1ccccc1/C=N/Nc1nc(-c2ccccc2Cl)cs1 [Compound A9, (Pivaloyloxy)methyl (E)-2-((2-(4-(2-chlorophenyl)thiazol-2-yl)hydrazono)methyl)benzoate] | > 50 |
| CCCCCOC(=O)c1ccccc1/C=N/Nc1nc(-c2ccccc2Cl)cs1 [Compound A6, (E)-4-(2-chlorophenyl)-2-(2-pentyloxyformylbenzylidenehydrazino)thiazole] | > 50 |
| CC(C)OC(=O)c1ccccc1/C=N/Nc1nc(-c2ccccc2Cl)cs1 [Compound A3, (E)-4-(2-chlorophenyl)-2-(2-isopropoxyformylbenzylidenehydrazino)thiazole] | 1.86 ± 0.0214 |
| CCCCOC(=O)c1ccccc1/C=N/N(C)c1nc(-c2ccccc2Cl)cs1 [Compound B4, (E)-4-(2-chlorophenyl)-2-[1-methyl-2-(2-butoxyformylbenzylidene)hydrazino]thiazole] | > 50 |
| CCOC(=O)c1ccccc1/C=N/Nc1nc(-c2ccccc2Cl)cs1 [Compound A1, (E)-4-(2-chlorophenyl)-2-(2-ethoxyformylbenzylidenehydrazino)thiazole] | 2.34 ± 0.0468 |

Second part, the compound after the results:

| IC50 [µM] | SMILES |
| --- | --- |
| > 50 | CCCCCOC(=O)c1ccccc1/C=N/N(C)c1nc(-c2ccccc2Cl)cs1 [Compound B6, (E)-4-(2-chlorophenyl)-2-[1-methyl-2-(2-pentyloxyformylbenzylidene)hydrazino]thiazole] |
| > 50 | CN(/N=C/c1ccccc1C(=O)OCOC(=O)C(C)(C)C)c1nc(-c2ccccc2Cl)cs1 [Compound B10, (pivaloyloxy)methyl (E)-2-((2-(4-(2-chlorophenyl)thiazol-2-yl)-2-methylhydrazono)methyl)benzoate] |
| > 50 | CC(C)OC(=O)OCOC(=O)c1ccccc1/C=N/N(C)c1nc(-c2ccccc2Cl)cs1 [Compound B11, ((isopropoxycarbonyl)oxy)methyl (E)-2-((2-(4-(2-chlorophenyl)thiazol-2-yl)-2-methylhydrazono)methyl)benzoate] |

Same assay, conditions: purified DHODH 10 nM, DHO 500 μM, CoQ 100 μM, DCIP 120 μM; read-out: IC50 (μM) hsDHODH

| IC50 [µM] | SMILES |
| --- | --- |
| 0.0086 ± 0.0001 | CCCN(/N=C/c1ccccc1C(=O)O)c1nc(-c2ccccc2Cl)cs1 [Compound 3, (E)-4-(2-chlorophenyl)-2-[1-propyl-2-(2-carboxybenzylidene)hydrazino]thiazole] |
| 0.0084 ± 0.0001 | Cc1ccc(/C=N/N(C)c2nc(-c3ccccc3Cl)cs2)c(C(=O)O)c1 [Compound 9, (E)-4-(2-chlorophenyl)-2-[1-methyl-2-(4-methyl-2-carboxybenzylidene)hydrazino]thiazole] |
| 0.0282 | CN(/N=C/c1ccccc1C(=O)O)c1nc(-c2cc(Cl)ccc2Cl)cs1 [Compound 19, (E)-4-(2,5-dichlorophenyl)-2-[1-methyl-2-(2-carboxybenzylidene)hydrazino]thiazole] |
| 0.0106 | CN(/N=C/c1ccccc1C(=O)O)c1nc(-c2cccc(Cl)c2)cs1 [Compound 21, (E)-4-(3-chlorophenyl)-2-[1-methyl-2-(2-carboxybenzylidene)hydrazino]thiazole] |
| 0.0044 | CN(/N=C/c1cc(F)c(F)cc1C(=O)O)c1nc(-c2ccccc2Cl)cs1 [Compound 23] |
| 0.0244 ± 0.0005 | CN(/N=C/c1ccccc1C(=O)O)c1nc(-c2ccccc2)cs1 [Compound 20, (E)-4-phenyl-2-[1-methyl-2-(2-carboxybenzylidene)hydrazino]thiazole] |
| 0.0191 ± 0.0006 | CCCC(C)N(/N=C/c1ccccc1C(=O)O)c1nc(-c2ccccc2Cl)cs1 (centres unmarked) [Compound 6, (E)-4-(2-chlorophenyl)-2-[1-(2-amyl)-2-(2-carboxybenzylidene)hydrazino]thiazole] |
| 0.0214 ± 0.0005 | CN(/N=C/c1cc(O)c(F)cc1C(=O)O)c1nc(-c2ccccc2Cl)cs1 [Compound 24] |
| 0.0811 ± 0.0001 | Cc1sc(N/N=C/c2ccccc2C(=O)O)nc1-c1ccccc1 [Compound 17, (E)-5-methyl-4-phenyl-2-(2-carboxylbenzylidenehydrazino)thiazole] |
| 0.0316 ± 0.0001 | CN(/N=C/c1cc(N)c(F)cc1C(=O)O)c1nc(-c2ccccc2Cl)cs1 [Compound 25] |
| 0.0136 ± 0.0005 | Cc1ccc(/C=N/N(C)c2nc(-c3ccccc3)c(C)s2)c(C(=O)O)c1 [Compound 11, (E)-5-methyl-4-phenyl-2-[1-methyl-2-(4-methyl-2-carboxybenzylidene)hydrazino]thiazole] |
| 0.356 ± 0.0064 | CCc1sc(N/N=C/c2ccccc2C(=O)O)nc1-c1ccccc1Cl [Compound 14, (E)-5-ethyl-4-(2-chlorophenyl)-2-(2-carboxylbenzylidenehydrazino)thiazole] |
| 0.0018 ± 0.0001 | CN(/N=C/c1ccc(F)cc1C(=O)O)c1nc(-c2ccccc2Cl)cs1 [Compound 10, (E)-4-(2-chlorophenyl)-2-[1-methyl-2-(2-carboxyl-4-fluorobenzylidene)hydrazino]thiazole] |
| 0.234 ± 0.0068 | O=C(O)c1c(F)cccc1/C=N/Nc1nc(-c2ccccc2Cl)cs1 [Compound 58, (E)-2-((2-(4-(2-chlorophenyl)thiazol-2-yl)hydrazono)methyl)-6-fluorobenzoic acid] |
| 0.0154 ± 0.0002 | CCCC(C)N(/N=C/c1ccccc1C(=O)O)c1nc(-c2ccccc2Cl)c(C)s1 (centres unmarked) [Compound 22, (E)-5-methyl-4-(2-chlorophenyl)-2-[1-(2-amyl)-2-(2-carboxybenzylidene)hydrazino]thiazole] |
